{"source": "patent US8815233B2", "about": "“Method for treating pervasive development disorders” (Curemark LLC, priority 1999, dated 2014)", "key": {"autistic children [1]": {"system": "autistic children", "test": "CARS (Childhood Autism Rating Scale) test pre/post secretin in autistic children", "assay_type": "in vivo, human", "conditions": "16 autistic children", "procedure": "Upon determining that a given child was likely to benefit from secretin administration based on the results of the fecal chymotrypsin test, the child was administered a CARS (Childhood Autism Rating Scale) test prior to being scheduled for secretin infusion.\n(§1) For each of the 16 autistic children tested, a preferred secretin infusion process according to the present invention was performed involving the administering of 1 U/kg of body weight of Secretin-Ferring for a period of nine months at intervals of approximately 6 weeks. In addition, another CARS test was administered to each of the 16 autistic children 3 weeks post secretin administration to determine if their autism had changed post infusion.\n(§2) A preferred secretin infusion process includes the initial step of prepping an arm of the candidate child with an IV injection of saline. A test dose of 1 U of Secretin-Ferring is then administered to the child. Approximately one minute after infusion, the child is examined for signs of allergic reaction including rash, increased heart rate, and increase of blood pressure. […] Subsequently, each child receives a 1 U/kg of body weight infusion of Secretin-Ferring approximately every 6 weeks for 9 months. It is to be understood that any commercially available form of secretin may be used."}, "[2]": {"system": "children diagnosed with Autism", "conditions": "Horvath et al. 1998; secretin given as diagnostic procedure during upper gastrointestinal endoscopy; cited from earlier work"}, "autistic children [3]": {"system": "autistic children", "test": "Fecal Chymotrypsin Test after secretin infusion in autistic children", "assay_type": "in vivo, human", "procedure": "In this experiment, 16 children diagnosed as having autism were administered the following Fecal Chymotrypsin Test in accordance with an embodiment of the invention. First, approximately 2 grams of stool were collected from each child and placed in a sterile container (although it is to be understood that any quantity of stool may be collected, as 2 grams of stool is not a required amount). Each stool sample was then analyzed using, e.g., an enzymatic photospectrometry analysis as is known by those skilled in the art, to determine the level of fecal chymotrypsin in the stool. Although the enzymatic photospectrophotometry process is preferred, any suitable conventional method may be used for measuring the fecal chymotrypsin levels. The measured chymotrypsin levels of the 16 autistic children are illustrated in FIG. 13.\nAfter determining the chymotrypsin levels of the stools, each of these levels were compared with threshold chymotrypsin levels to determine if the child was likely to benefit from secretin administration. By way of example, with the fecal chymotrypsin tests of the stool samples being performed at 30° C., normal levels of chymotrypsin are deemed to lie above 8.4 U/gram, whereas pathologically abnormal levels are deemed to lie below 4.2 U/gram. In addition, chymotrypsin levels between 8.4 U/gram and 4.2 U/gram are considered equivocal, and further testing of the individual's fecal chymotrypsin levels over a period of time should be performed.\nas §1\nas §2, with “It is to be understood that any commercially available form of secretin may be used.” left out\nIn this experiment, 37 autistic children with abnormal fecal chymotrypsin levels were administered secretin over the course of 6 months using the secretin infusion process described above. Their fecal chymotrypsin (FC) levels were measured weekly using the fecal chymotrypsin test described above."}}, "data": [{"substance": "secretin", "values": [{"measurement": "CARS component scores (except fear)", "setting": "autistic children [1]; 3 weeks post secretin infusion", "value": "improvement"}, {"measurement": "CARS fear component score", "setting": "autistic children [1]; 3 weeks post secretin infusion", "value": "increased"}, {"measurement": "CARS scores (overall)", "setting": "autistic children [1]; approx. 3 weeks after first secretin administration, 1 U/kg IV, vs pre-secretin", "value": "overall decrease"}, {"measurement": "symptoms associated with Autism after secretin administration", "setting": "[2]", "value": "ameliorating the symptoms associated with Autism"}, {"measurement": "fecal chymotrypsin level post-secretin administration", "setting": "autistic children [3]; each of 16 autistic children, approx. one week after first infusion, 1 U/kg IV Secretin-Ferring, vs pre-secretin (all abnormal)", "value": "increased"}, {"measurement": "# Autistic Children w/Equivocal FC levels", "setting": "autistic children [3]; of 37 children, 6 months post-secretin, pre-secretin 0, equivocal 4.2-8.4 U/gram", "value": 2}, {"measurement": "# Autistic Children w/normal FC levels", "setting": "autistic children [3]; of 37 children, 6 months post-secretin, pre-secretin 0, normal above 8.4 U/gram", "value": 34}, {"measurement": "# Autistic Children w/Abnormal FC levels", "setting": "autistic children [3]; of 37 children, 6 months post-secretin, pre-secretin 37, abnormal below 4.2 U/gram", "value": 1}]}]}
